Assay results: patent publication US10894788B2, “Inhibitors of cyclin-dependent kinases” (Kinnate Biopharma Inc., priority 2018, dated 2021)

These compounds were tested against CDK12 wt/CycK (Homo sapiens (Human), UniProt Q9NYV4) (assay: Radiometric protein kinase assay (33PanQinase Activity Assay), Assay Condition A (thiol containing conditions)). Conditions: not given.
Type: biochemical
Method: Example 1—Assay Condition A (Thiol Containing Conditions)
Objective: The IC50 profile of test compounds was determined using three protein kinases.
Test compounds: The compounds were provided as pre-weighed powders in vials. The compounds were dissolved to 1×10^−02M by adding DMSO. 100 μl of each of the resulting stock solutions were transferred into column 2 of four 96 well “master plates”.
Prior to testing, the 1×10^−02M stock solutions in column 2 of the master plates were subjected to a serial, semi-logarithmic dilution using 100% DMSO as a solvent. […] Column 1 and 7 were filled with 100% DMSO as controls. Subsequently, 2×10 μl from each well of the serial diluted copy plates were aliquoted with a 96 channel pipettor into two identical sets of “compound dilution plates”.
In the process, 90 μl H2O were added to each well of a set of compound dilution plates. To minimize potential precipitation, the H2O was added to each plate only a few minutes before the transfer of the compound solutions into the assay plates. Each plate was shaken thoroughly, resulting in a “compound dilution plate/10% DMSO”.
For the assays, 5 μl solution from each well of the compound dilution plates/10% DMSO were transferred into the assay plates. The final volume of the assay was 50 μl. All compounds were tested at 10 final assay concentrations in the range from 1×10^−04M to 3×10^−09M, in singlicate. The final DMSO concentration in the reaction cocktails was 1% in all cases.
Recombinant protein kinases: All protein kinases were expressed in Sf9 insect cells or in E. coli as recombinant GST-fusion proteins or His-tagged proteins, either as full-length or enzymatically active fragments. All kinases were produced from human cDNAs and purified by either GSH-affinity chromatography or immobilized metal. Affinity tags were removed from a number of kinases during purification. The purity of the protein kinases was examined by SDS-PAGE/Coomassie staining, the identity was checked by mass spectroscopy.
Protein kinase assay: A radiometric protein kinase assay (^33PanQinase® Activity Assay) was used for measuring the kinase activity of the three protein kinases. All kinase assays were performed in 96-well FlashPlates™ from PerkinElmer (Boston, Mass., USA) in a 50 μl reaction volume. The reaction cocktail was pipetted in four steps in the following order: • 20 μl of assay buffer (standard buffer) • 5 μl of ATP solution (in H2O) • 5 μl of test compound (in 10% DMSO) • 20 μl enzyme/substrate mix
The following amounts of enzyme and substrate were used per well:
The reaction cocktails were incubated at 30° C. for 60 minutes. The reaction was stopped with 50 μl of 2% (v/v) H3PO4, plates were aspirated and washed two times with 200 μl 0.9% (w/v) NaCl. Incorporation of ^33Pi was determined with a microplate scintillation counter (Microbeta, Wallac). All assays were performed with a BeckmanCoulter/SAGIAN™ Core System.
Evaluation of raw data: The median value of the counts in column 1 (n=8) of each assay plate was defined as “low control”. This value reflects unspecific binding of radioactivity to the plate in the absence of a protein kinase but in the presence of the substrate. The median value of the counts in column 7 of each assay plate (n=8) was taken as the “high control”, i.e. full activity in the absence of any inhibitor. The difference between high and low control was taken as 100% activity.
As part of the data evaluation the low control value from a particular plate was subtracted from the high control value as well as from all 80 “compound values” of the corresponding plate. The residual activity (in %) for each well of a particular plate was calculated by using the following formula: Res. Activity (%)=100×[(cpm of compound−low control)/(high control−low control)]
The residual activities for each concentration and the compound IC50 values were calculated using Quattro Workflow V3.1.1 (Quattro Research GmbH, Munich, Germany).

CDK12 wt/CycK, sequence (Q9NYV4 whole entry): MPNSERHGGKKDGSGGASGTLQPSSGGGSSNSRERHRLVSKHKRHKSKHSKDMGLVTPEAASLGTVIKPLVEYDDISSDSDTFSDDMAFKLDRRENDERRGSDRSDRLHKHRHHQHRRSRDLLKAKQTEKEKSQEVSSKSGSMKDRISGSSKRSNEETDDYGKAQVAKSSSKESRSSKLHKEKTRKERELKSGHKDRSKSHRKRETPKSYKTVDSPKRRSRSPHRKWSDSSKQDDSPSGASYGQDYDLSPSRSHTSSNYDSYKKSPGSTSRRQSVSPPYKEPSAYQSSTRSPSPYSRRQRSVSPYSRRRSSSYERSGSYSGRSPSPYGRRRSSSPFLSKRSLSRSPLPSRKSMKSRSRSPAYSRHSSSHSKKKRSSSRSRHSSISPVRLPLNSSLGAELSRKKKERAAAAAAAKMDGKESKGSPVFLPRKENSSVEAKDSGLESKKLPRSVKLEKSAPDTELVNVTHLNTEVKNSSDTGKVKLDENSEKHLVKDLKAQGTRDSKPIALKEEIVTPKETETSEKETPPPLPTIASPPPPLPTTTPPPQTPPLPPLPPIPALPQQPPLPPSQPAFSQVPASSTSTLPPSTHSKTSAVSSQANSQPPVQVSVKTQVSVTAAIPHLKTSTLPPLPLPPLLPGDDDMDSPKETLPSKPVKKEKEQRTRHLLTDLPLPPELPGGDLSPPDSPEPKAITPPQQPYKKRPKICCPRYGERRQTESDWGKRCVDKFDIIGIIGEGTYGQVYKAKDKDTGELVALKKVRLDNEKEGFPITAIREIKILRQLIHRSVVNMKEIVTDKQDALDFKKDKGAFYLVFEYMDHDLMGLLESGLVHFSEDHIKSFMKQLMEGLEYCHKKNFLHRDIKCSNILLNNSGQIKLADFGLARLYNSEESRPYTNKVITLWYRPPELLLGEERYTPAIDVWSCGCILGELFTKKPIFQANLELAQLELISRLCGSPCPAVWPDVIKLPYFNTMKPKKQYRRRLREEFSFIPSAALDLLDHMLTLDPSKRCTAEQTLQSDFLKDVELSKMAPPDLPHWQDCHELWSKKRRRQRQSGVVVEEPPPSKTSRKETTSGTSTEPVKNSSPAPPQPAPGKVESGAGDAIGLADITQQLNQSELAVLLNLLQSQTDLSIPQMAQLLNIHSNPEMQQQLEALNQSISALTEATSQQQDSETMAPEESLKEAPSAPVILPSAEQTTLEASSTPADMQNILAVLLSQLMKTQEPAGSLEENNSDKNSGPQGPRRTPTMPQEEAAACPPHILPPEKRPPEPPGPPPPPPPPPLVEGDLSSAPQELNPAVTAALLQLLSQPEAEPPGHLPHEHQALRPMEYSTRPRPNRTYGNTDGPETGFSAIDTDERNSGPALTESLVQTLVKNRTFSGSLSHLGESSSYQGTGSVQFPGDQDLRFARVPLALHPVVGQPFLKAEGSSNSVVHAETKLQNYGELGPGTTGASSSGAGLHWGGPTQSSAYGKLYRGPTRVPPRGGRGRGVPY
CDK12 wt/CycK, sequence (O75909 whole entry partner): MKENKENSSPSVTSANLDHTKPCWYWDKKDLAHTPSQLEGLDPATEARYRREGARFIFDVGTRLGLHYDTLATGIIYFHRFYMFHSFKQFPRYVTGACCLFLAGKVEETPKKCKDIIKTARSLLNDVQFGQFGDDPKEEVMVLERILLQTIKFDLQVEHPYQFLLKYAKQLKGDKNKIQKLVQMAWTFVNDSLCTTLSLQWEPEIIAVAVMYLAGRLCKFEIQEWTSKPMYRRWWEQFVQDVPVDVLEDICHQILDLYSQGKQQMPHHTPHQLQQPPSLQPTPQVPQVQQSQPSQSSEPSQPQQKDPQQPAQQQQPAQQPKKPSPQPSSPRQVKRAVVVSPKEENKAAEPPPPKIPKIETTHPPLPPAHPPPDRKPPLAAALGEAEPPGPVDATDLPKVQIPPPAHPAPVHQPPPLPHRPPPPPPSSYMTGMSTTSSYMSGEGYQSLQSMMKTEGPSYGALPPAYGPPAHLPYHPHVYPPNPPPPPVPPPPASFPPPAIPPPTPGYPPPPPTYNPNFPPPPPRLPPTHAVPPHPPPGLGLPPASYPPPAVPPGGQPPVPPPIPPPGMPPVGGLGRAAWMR

SMILES | IC50 [nM]
C=CC(=O)Nc1ccc(C(=O)N2CC[C@@](C)(Nc3ncc(Cl)cn3)C2)cc1 [Example 109, (R)—N-(4-(3-((5-chloropyrimidin-2-yl)amino)-3-methylpyrrolidine-1-carbonyl)phenyl)acrylamide] | 10000 to 30000

Same assay, conditions: thiol containing conditions (1.2 mM DTT), ATP 0.3 μM; read-out: CDK12 IC50 Condition A

SMILES | IC50 [nM]
C=CC(=O)N(C)c1ccc(C(=O)N2CC[C@@H](Nc3ncc(C#N)cn3)C2)cc1 [Example 70, (R)—N-(4-(3-((5-cyanopyrimidin-2-yl)amino)pyrrolidine-1-carbonyl)phenyl)-N-methylacrylamide] | 100 to 1000
C=CC(=O)N(C)c1ccc(C(=O)N2CC[C@@H](Nc3ncc(Cl)c(OC)n3)C2)nc1 [Example 77, (R)—N-(6-(3-((5-chloro-4-methoxypyrimidin-2-yl)amino)pyrrolidine-1-carbonyl)pyridin-3-yl)-N-methylacrylamide] | 100 to 1000
C=CC(=O)Nc1ccc(C(=O)N2CC[C@@H](Nc3ncc(Cl)cn3)C2)cc1 [Example 87, (R)—N-(4-(3-((5-chloropyrimidin-2-yl)amino)pyrrolidine-1-carbonyl)phenyl)acrylamide] | 100 to 1000
C=CC(=O)Nc1ccc(C(=O)N2CC[C@@H](Nc3ncc(Cl)c(OCCOC)n3)C2)cc1 [Example 88, (R)—N-(4-(3-((5-chloro-4-(2-methoxyethoxy)pyrimidin-2-yl)amino)pyrrolidine-1-carbonyl)phenyl)acrylamide] | < 100
C=CC(=O)Nc1ccc(C(=O)N2CC[C@@H](Nc3ncc(Cl)c(N4CCC4)n3)C2)cc1 [Example 89, (R)—N-(4-(3-((4-(azetidin-1-yl)-5-chloropyrimidin-2-yl)amino)pyrrolidine-1-carbonyl)phenyl)acrylamide] | 100 to 1000
C=CC(=O)Nc1ccc(C(=O)N2CC[C@@H](Nc3ncc(Cl)c(N)n3)C2)cc1 [Example 90, (R)—N-(4-(3-((4-amino-5-chloropyrimidin-2-yl)amino)pyrrolidine-1-carbonyl)phenyl)acrylamide] | < 100
C=CC(=O)Nc1ccc(C(=O)N2CC[C@@H](Nc3ncc(C(F)(F)F)c(N)n3)C2)cc1 [Example 91, (R)—N-(4-(3-((4-amino-5-(trifluoromethyl)pyrimidin-2-yl)amino)pyrrolidine-1-carbonyl)phenyl)acrylamide] | < 100
C=CC(=O)Nc1ccc(C(=O)N2CC[C@@H](Nc3ncc(Cl)c(C(F)(F)F)n3)C2)cc1 [Example 92, (R)—N-(4-(3-((5-chloro-4-(trifluoromethyl)pyrimidin-2-yl)amino)pyrrolidine-1-carbonyl)phenyl)acrylamide] | < 100
[2H]C([2H])([2H])Oc1nc(N[C@@H]2CCN(C(=O)c3ccc(NC(=O)C=C)cc3)C2)ncc1Cl [Example 93, (R)—N-(4-(3-((5-chloro-4-(trideuteromethoxy)pyrimidin-2-yl)amino)pyrrolidine-1-carbonyl)phenyl)acrylamide] | < 100
C=CC(=O)Nc1nc(C(=O)N2CC[C@@H](Nc3ncc(Cl)cn3)C2)cs1 [Example 94, (R)—N-(4-(3-((5-chloropyrimidin-2-yl)amino)pyrrolidine-1-carbonyl)thiazol-2-yl)acrylamide] | 100 to 1000
C=CC(=O)Nc1ccc(C(=O)N2CC[C@@H](Nc3ncc(Cl)c(Oc4ccccc4)n3)C2)cc1 [Example 95, (R)—N-(4-(3-((5-chloro-4-phenoxypyrimidin-2-yl)amino)pyrrolidine-1-carbonyl)phenyl)acrylamide] | < 100
C=CC(=O)Nc1ccc(C(=O)N2CC[C@@H](Nc3ncc(Cl)c(OCC)n3)C2)cc1 [Example 96, (R)—N-(4-(3-((5-chloro-4-ethoxypyrimidin-2-yl)amino)pyrrolidine-1-carbonyl)phenyl)acrylamide] | < 100
C=CC(=O)Nc1ccc(C(=O)N2CC[C@@H](Nc3ncc(Cl)c(O)n3)C2)cc1 [Example 97, (R)—N-(4-(3-((5-chloro-4-hydroxypyrimidin-2-yl)amino)pyrrolidine-1-carbonyl)phenyl)acrylamide] | 30000 to 100000
CN(C)C/C=C/C(=O)Nc1ccc(C(=O)N2CC[C@@H](Nc3ncc(Cl)cn3)C2)cc1 [Example 98, (R,E)-N-(4-(3-((5-chloropyrimidin-2-yl)amino)pyrrolidine-1-carbonyl)phenyl)-4-(dimethylamino)but-2-enamide] | 1000 to 10000
C=CC(=O)Nc1ccc(C(=O)N2CC[C@@H](Nc3ncc(C4CC4)c(OC)n3)C2)cc1 [Example 99, (R)—N-(4-(3-((5-cyclopropyl-4-methoxypyrimidin-2-yl)amino)pyrrolidine-1-carbonyl)phenyl)acrylamide] | 100 to 1000
C=CC(=O)Nc1nc(C(=O)N2CC[C@@H](Nc3ncc(C(F)(F)F)cn3)C2)cs1 [Example 100, (R)—N-(4-(3-((5-(trifluoromethyl)pyrimidin-2-yl)amino)pyrrolidine-1-carbonyl)thiazol-2-yl)acrylamide] | 100 to 1000
C=CC(=O)Nc1nc(C(=O)N2CCC[C@@H](Nc3ncc(Cl)c(OC)n3)C2)cs1 [Example 101, (R)—N-(4-(3-((5-chloro-4-methoxypyrimidin-2-yl)amino)piperidine-1-carbonyl)thiazol-2-yl)acrylamide] | 100 to 1000
C=CC(=O)Nc1ccc(C(=O)N2CC[C@@H](Nc3ncc(Cl)c(OCCC#N)n3)C2)cc1 [Example 102, (R)—N-(4-(3-((5-chloro-4-(2-cyanoethoxy)pyrimidin-2-yl)amino)pyrrolidine-1-carbonyl)phenyl)acrylamide] | < 100
C=CC(=O)Nc1ccc(C(=O)N2CC[C@@H](Nc3ncc(Cl)cn3)C2)cc1OC1CCOC1 (stereo partly drawn) [Example 103, N-(4-((R)-3-((5-chloropyrimidin-2-yl)amino)pyrrolidine-1-carbonyl)-2-((tetrahydrofuran-3-yl)oxy)phenyl)acrylamide] | 100 to 1000
C=CC(=O)N(C)c1ccc(C(=O)N2CC[C@@H](Nc3ncc(Br)cn3)C2)cc1 [Example 104, (R)—N-(4-(3-((5-bromopyrimidin-2-yl)amino)pyrrolidine-1-carbonyl)phenyl)-N-methylacrylamide] | < 100
C=CC(=O)Nc1cccc(C(=O)N2CC[C@@H](Nc3ncc(Cl)c(OC)n3)C2)c1 [Example 105, (R)—N-(3-(3-((5-chloro-4-methoxypyrimidin-2-yl)amino)pyrrolidine-1-carbonyl)phenyl)acrylamide] | 100 to 1000
C=CC(=O)Nc1cccc(C(=O)N2CCC[C@@H](Nc3ncc(Cl)c(OC)n3)C2)c1 [Example 106, (R)—N-(3-(3-((5-chloro-4-methoxypyrimidin-2-yl)amino)piperidine-1-carbonyl)phenyl)acrylamide] | 10000 to 30000
C=CC(=O)Nc1ccc(C(=O)N2CC[C@@H](Nc3ncc(CC(C)C)cn3)C2)cc1 [Example 107, (R)—N-(4-(3-((5-isobutylpyrimidin-2-yl)amino)pyrrolidine-1-carbonyl)phenyl)acrylamide] | 1000 to 10000
C=CC(=O)Nc1ccc(C(=O)N2CC[C@](C)(Nc3ncc(Cl)cn3)C2)cc1 [Example 108, (S)—N-(4-(3-((5-chloropyrimidin-2-yl)amino)-3-methylpyrrolidine-1-carbonyl)phenyl)acrylamide] | 30000 to 100000
C=CC(=O)Nc1cc(C(=O)N2CC[C@@H](Nc3ncc(Cl)cn3)C2)nn1C [Example 110, (R)—N-(3-(3-((5-chloropyrimidin-2-yl)amino)pyrrolidine-1-carbonyl)-1-methyl-1H-pyrazol-5-yl)acrylamide] | 1000 to 10000
